Assay results reported in US20160106692A1 (priority 2014, published 2016).
Entries after “also recorded” stand apart in the source; their conditions may differ.

Legend:
[1] = system: Influenza Virus A/California/07/2009 H1N1; format: cell-based
[2] = system: Influenza Virus A/Maryland/04/2011 H1N1; format: cell-based

In the case of `CCOC(=O)C1=C[C@@H](OC(CC)CC)[C@H](NC(C)=O)[C@@H](N)C1` [Oseltamivir], the “plaque inhibition, result in words” value [1] is reported as “sensitive to this drug to 1 μM; also recorded: showed inhibitory effects” and the “plaque inhibition, result in words” value [2] is reported as “only partially sensitive; also recorded: reduced oseltamivir susceptibility”.
